{"source": "patent US20250136578A1", "about": "(Kolm Therapeutics Inc., priority 2023, published 2025)", "key": {"AR / CBP ternary complex": {"biological_target": "AR / CBP ternary complex (Homo sapiens, UniProt P10275+Q92793)", "sequence (P10275 whole entry)": "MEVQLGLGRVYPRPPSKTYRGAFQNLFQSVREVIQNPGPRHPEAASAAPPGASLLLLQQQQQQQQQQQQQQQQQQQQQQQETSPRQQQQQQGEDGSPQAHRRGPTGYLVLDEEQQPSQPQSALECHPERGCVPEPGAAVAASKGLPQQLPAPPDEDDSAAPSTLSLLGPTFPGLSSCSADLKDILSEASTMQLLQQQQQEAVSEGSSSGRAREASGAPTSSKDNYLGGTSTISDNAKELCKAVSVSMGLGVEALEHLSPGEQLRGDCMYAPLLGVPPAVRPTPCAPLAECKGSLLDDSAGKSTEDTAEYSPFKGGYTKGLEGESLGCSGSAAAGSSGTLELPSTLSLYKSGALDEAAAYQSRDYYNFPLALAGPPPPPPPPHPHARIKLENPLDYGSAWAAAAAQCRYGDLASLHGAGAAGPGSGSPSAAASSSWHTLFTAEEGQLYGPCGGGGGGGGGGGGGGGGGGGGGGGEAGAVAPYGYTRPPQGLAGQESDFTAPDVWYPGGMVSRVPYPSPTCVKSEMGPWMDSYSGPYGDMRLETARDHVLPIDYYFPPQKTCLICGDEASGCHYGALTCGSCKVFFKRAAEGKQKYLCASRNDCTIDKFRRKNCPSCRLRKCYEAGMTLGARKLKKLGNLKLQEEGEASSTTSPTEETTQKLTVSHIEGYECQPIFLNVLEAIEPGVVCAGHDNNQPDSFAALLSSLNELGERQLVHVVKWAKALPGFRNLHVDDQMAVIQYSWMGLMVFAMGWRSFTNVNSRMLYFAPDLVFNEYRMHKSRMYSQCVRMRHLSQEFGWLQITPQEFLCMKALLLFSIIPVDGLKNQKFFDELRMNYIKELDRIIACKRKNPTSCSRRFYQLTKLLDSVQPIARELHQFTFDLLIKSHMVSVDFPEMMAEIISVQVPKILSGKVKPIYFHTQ", "sequence (Q92793 2-2442)": "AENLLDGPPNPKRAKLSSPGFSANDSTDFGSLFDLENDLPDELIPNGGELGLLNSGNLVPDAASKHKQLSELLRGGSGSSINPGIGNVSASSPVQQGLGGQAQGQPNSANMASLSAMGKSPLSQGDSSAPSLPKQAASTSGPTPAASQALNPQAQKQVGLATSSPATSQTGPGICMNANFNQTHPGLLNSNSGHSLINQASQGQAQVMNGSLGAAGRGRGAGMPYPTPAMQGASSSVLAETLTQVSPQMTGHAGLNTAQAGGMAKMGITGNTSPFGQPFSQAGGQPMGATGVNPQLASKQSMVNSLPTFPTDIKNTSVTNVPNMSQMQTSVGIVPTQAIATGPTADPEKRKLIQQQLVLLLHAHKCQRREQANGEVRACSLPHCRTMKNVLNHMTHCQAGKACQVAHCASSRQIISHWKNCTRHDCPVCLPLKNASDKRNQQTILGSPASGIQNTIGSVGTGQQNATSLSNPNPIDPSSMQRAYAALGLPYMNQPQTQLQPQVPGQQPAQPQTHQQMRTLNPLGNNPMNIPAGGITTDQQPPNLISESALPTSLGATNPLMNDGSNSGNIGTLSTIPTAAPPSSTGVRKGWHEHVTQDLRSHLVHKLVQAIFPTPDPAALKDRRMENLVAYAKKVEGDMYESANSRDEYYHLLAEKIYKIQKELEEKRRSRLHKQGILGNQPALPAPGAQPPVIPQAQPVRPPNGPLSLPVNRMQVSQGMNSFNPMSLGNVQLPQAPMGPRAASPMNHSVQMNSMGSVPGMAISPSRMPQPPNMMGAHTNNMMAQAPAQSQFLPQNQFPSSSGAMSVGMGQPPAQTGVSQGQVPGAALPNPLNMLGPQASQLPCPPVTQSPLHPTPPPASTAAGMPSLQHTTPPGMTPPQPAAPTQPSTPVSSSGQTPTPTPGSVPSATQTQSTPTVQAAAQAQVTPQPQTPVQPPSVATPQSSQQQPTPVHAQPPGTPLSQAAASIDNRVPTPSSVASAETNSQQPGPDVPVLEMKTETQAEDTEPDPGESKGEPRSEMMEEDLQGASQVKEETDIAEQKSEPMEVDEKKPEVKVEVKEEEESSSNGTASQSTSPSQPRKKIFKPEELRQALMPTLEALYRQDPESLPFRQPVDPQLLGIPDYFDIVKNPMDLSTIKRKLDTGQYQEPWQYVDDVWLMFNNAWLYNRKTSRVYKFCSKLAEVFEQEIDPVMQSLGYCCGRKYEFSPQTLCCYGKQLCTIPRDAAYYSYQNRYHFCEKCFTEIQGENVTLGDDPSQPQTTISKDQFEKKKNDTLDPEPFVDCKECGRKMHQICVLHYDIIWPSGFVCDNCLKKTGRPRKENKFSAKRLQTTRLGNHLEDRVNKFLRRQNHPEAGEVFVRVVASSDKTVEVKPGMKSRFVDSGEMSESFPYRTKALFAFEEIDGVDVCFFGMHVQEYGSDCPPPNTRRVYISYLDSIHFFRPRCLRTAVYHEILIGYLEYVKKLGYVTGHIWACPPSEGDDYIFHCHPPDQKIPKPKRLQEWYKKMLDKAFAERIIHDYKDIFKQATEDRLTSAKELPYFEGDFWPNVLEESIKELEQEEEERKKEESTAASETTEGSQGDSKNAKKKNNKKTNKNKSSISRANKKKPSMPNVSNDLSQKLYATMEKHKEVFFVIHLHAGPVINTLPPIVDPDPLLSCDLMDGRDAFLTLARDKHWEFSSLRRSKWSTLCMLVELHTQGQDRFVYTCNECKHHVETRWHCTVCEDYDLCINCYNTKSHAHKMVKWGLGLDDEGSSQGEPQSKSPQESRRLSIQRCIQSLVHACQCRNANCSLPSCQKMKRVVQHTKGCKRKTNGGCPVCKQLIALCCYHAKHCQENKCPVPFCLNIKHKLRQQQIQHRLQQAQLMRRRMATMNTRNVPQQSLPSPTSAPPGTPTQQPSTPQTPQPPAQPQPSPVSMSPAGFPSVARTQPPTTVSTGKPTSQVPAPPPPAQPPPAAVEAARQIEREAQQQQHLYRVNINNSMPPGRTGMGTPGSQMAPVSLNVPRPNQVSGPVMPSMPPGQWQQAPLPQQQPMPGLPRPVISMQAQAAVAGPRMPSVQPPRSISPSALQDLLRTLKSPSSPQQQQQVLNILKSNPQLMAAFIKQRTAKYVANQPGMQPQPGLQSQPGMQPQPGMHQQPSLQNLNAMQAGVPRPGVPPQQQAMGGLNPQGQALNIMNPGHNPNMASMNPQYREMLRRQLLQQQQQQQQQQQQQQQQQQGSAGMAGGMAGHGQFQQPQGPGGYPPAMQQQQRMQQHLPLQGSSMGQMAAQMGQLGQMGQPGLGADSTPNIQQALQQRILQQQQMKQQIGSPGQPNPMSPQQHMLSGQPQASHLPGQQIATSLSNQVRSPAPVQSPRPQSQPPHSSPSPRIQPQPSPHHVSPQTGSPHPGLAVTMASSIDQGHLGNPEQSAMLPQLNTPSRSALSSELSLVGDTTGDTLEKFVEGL", "test": "Ternary complex formation assay (sandwich ELISA, AR capture, CBP antibody detection) in VCaP cell lysates", "format": "cell-based", "details": "treated 1.5 hours, rabbit CBP or p300 antibody detection, average, read-out: Average Ternary Complex", "in_short": "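VCaP cells in 5% charcoal-stripped FBS were cultured ≥3 days and then given bifunctional compound for 1.5 h. Lysates went onto AR-antibody-coated plates. Bound CBP (or p300) was detected with a rabbit antibody plus HRP anti-rabbit, using QuantaRed chemifluorescence (ex 570/em 585) read immediately, at 5 min and at 15 min.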"}, "VCaP cells": {"system": "VCaP cells", "test": "VCaP growth inhibition assay (CTG)", "format": "cell-based", "details": "Homo sapiens, 216 h, 30 pM R1881, 9 days", "in_short": "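VCaP cells in phenol red-free DMEM with 5% charcoal-stripped serum were stimulated with 30 pM R1881 (final) and treated with compound from 100 nM to 10 fM final (1:5 dilutions) for 9 days at 37 °C. Viability was read by CellTiter-Glo luminescence, and IC50 came from 4-parameter logistic fits.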"}}}
{"molecule": "CC(=O)N1CCc2c(c(N3CCCc4cc(-c5cnn(C)c5)c(C(F)F)cc43)nn2C2CCC(CC3CCN(c4ccc(C(=O)N[C@H]5CC[C@H](Oc6ccc(C#N)c(Cl)c6)CC5)nn4)CC3)CC2)C1", "note": "(some centres unmarked) [Compound 155, 6-[4-[[4-[5-acetyl-3-[7-(difluoromethyl)-6-(1-methylpyrazol-4-yl)-3,4-dihydro-2H-quinolin-1-yl]-6,7-dihydro-4H-pyrazolo[4,3-c]pyridin-1-yl]cyclohexyl]methyl]-1-piperidyl]-N-[4-(3-chloro-4-cyano-phenoxy)cyclohexyl]pyridazine-3-carboxamide]", "values": [{"measurement": "EC50", "setting": "AR / CBP ternary complex", "result": "< 1", "unit": "nM"}, {"measurement": "IC50", "setting": "VCaP cells", "result": "0.1 to 1", "unit": "nM"}]}
{"molecule": "CC(=O)N1CCc2c(c(N3CCCc4cc(C#N)ccc43)nn2C2CCC3(CC2)CCN(c2ccc(C(=O)N[C@H]4CC[C@H](Oc5ccc(C#N)c(Cl)c5)CC4)nn2)CC3)C1", "note": "[Compound 113, 6-[9-[5-acetyl-3-(6-cyano-3,4-dihydro-2H-quinolin-1-yl)-6,7-dihydro-4H-pyrazolo[4,3-c]pyridin-1-yl]-3-azaspiro[5.5]undecan-3-yl]-N-[4-(3-chloro-4-cyano-phenoxy)cyclohexyl]pyridazine-3-carboxamide]", "values": [{"measurement": "EC50", "setting": "AR / CBP ternary complex", "result": "< 1", "unit": "nM"}, {"measurement": "IC50", "setting": "VCaP cells", "result": "0.1 to 1", "unit": "nM"}]}
{"molecule": "CC(=O)N1CCc2c(c(-c3cccc4cc(-c5cnn(CCC6CC7(C6)CN(c6ccc(C(=O)N[C@H]8CC[C@H](Oc9ccc(C#N)c(Cl)c9)CC8)nn6)C7)c5)ncc34)nn2C)C1", "note": "[Compound 50, 6-[6-[2-[4-[8-(5-acetyl-1-methyl-6,7-dihydro-4H-pyrazolo[4,3-c]pyridin-3-yl)-3-isoquinolyl]pyrazol-1-yl]ethyl]-2-azaspiro[3.3]heptan-2-yl]-N-[4-(3-chloro-4-cyano-phenoxy)cyclohexyl]pyridazine-3-carboxamide]", "values": [{"measurement": "EC50", "setting": "AR / CBP ternary complex", "result": "< 1", "unit": "nM"}, {"measurement": "IC50", "setting": "VCaP cells", "result": "≤ 0.1", "unit": "nM"}]}
{"molecule": "CC(=O)N1CCc2c(c(N3CCCc4cc(C#N)ccc43)nn2C2CCN(CC3(C)CCN(c4ccc(C(=O)N[C@H]5CC[C@H](Oc6ccc(C#N)c(Cl)c6)CC5)nn4)CC3)CC2)C1", "note": "[Compound 102, 6-[4-[[4-[5-acetyl-3-(6-cyano-3,4-dihydro-2H-quinolin-1-yl)-6,7-dihydro-4H-pyrazolo[4,3-c]pyridin-1-yl]-1-piperidyl]methyl]-4-methyl-1-piperidyl]-N-[4-(3-chloro-4-cyano-phenoxy)cyclohexyl]pyridazine-3-carboxamide]", "values": [{"measurement": "EC50", "setting": "AR / CBP ternary complex", "result": "< 1", "unit": "nM"}, {"measurement": "IC50", "setting": "VCaP cells", "result": "0.1 to 1", "unit": "nM"}]}
{"molecule": "CC(=O)N1CCc2c(c(-c3cccc4cc(-c5cnn(CCOC6CC7(C6)CN(c6ccc(C(=O)N[C@H]8CC[C@H](Oc9ccc(C#N)c(Cl)c9)CC8)nn6)C7)c5)ncc34)nn2C2CCOCC2)C1", "note": "[Compound 63, 6-[6-[2-[4-[8-(5-acetyl-1-tetrahydropyran-4-yl-6,7-dihydro-4H-pyrazolo[4,3-c]pyridin-3-yl)-3-isoquinolyl]pyrazol-1-yl]ethoxy]-2-azaspiro[3.3]heptan-2-yl]-N-[4-(3-chloro-4-cyano-phenoxy)cyclohexyl]pyridazine-3-carboxamide]", "values": [{"measurement": "EC50", "setting": "AR / CBP ternary complex", "result": "< 1", "unit": "nM"}, {"measurement": "IC50", "setting": "VCaP cells", "result": "0.1 to 1", "unit": "nM"}]}
{"molecule": "CC(=O)N1CCc2c(c(N3CCCc4cc(-c5cnn(C)c5)ncc43)nn2C2CCN(CC3CCN(c4ccc(C(=O)N[C@H]5CC[C@H](Oc6ccc(C#N)c(Cl)c6)CC5)nn4)CC3)CC2)C1", "note": "[Compound 66, rac-6-(4-((4-(5-acetyl-3-(6-(1-methyl-1H-pyrazol-4-yl)-3,4-dihydro-1,7-naphthyridin-1(2H)-yl)-4,5,6,7-tetrahydro-1H-pyrazolo[4,3-c]pyridin-1-yl)piperidin-1-yl)methyl)piperidin-1-yl)-N-((1r,4r)-4-(3-chloro-4-cyanophenoxy)cyclohexyl)pyridazine-3-carboxamide]", "values": [{"measurement": "EC50", "setting": "AR / CBP ternary complex", "result": "< 1", "unit": "nM"}, {"measurement": "IC50", "setting": "VCaP cells", "result": "0.1 to 1", "unit": "nM"}]}
{"molecule": "CC(=O)N1CCc2c(c(-c3cccc4cc(-c5cnn(CC6CCN(c7ccc(C(=O)N[C@H]8CC[C@H](Oc9ccc(C#N)c(Cl)c9)CC8)nn7)CC6)c5)ncc34)nn2C2CCOCC2)C1", "note": "[Compound 22, 6-[4-[[4-[8-(5-acetyl-1-tetrahydropyran-4-yl-6,7-dihydro-4H-pyrazolo[4,3-c]pyridin-3-yl)-3-isoquinolyl]pyrazol-1-yl]methyl]-1-piperidyl]-N-[4-(3-chloro-4-cyano-phenoxy)cyclohexyl]pyridazine-3-carboxamide]", "values": [{"measurement": "EC50", "setting": "AR / CBP ternary complex", "result": "< 1", "unit": "nM"}, {"measurement": "IC50", "setting": "VCaP cells", "result": "≤ 0.1", "unit": "nM"}]}
{"molecule": "Cc1cc2c(N3CCN(C)c4cc(-c5cnn(C)c5)c(C#N)cc43)cc(OC3CCN(c4ccc(C(=O)N[C@H]5CC[C@H](Oc6ccc(C#N)c(Cl)c6)CC5)nn4)CC3)cc2n(C)c1=O", "note": "[Compound 35, N-[4-(3-chloro-4-cyano-phenoxy)cyclohexyl]-6-[4-[[5-[7-cyano-4-methyl-6-(1-methylpyrazol-4-yl)-2,3-dihydroquinoxalin-1-yl]-1,3-dimethyl-2-oxo-7-quinolyl]oxy]-1-piperidyl]pyridazine-3-carboxamide]", "values": [{"measurement": "EC50", "setting": "AR / CBP ternary complex", "result": "> 100", "unit": "nM"}, {"measurement": "IC50", "setting": "VCaP cells", "result": "0.1 to 1", "unit": "nM"}]}
{"molecule": "CC(=O)N1CCc2c(c(N3CCCc4cc(-c5cnn(C)c5)c(C(F)F)cc43)nn2C2CCN(CC3CCN(c4ccc(C(=O)N[C@H]5CC[C@H](Oc6ccc(C#N)c(Cl)c6)CC5)nn4)CC34CC4)CC2)C1", "note": "(some centres unmarked) [Compound 231, 6-[8-[[4-[5-acetyl-3-[7-(difluoromethyl)-6-(1-methylpyrazol-4-yl)-3,4-dihydro-2H-quinolin-1-yl]-6,7-dihydro-4H-pyrazolo[4,3-c]pyridin-1-yl]-1-piperidyl]methyl]-5-azaspiro[2.5]octan-5-yl]-N-[4-(3-chloro-4-cyano-phenoxy)cyclohexyl]pyridazine-3-carboxamide]", "values": [{"measurement": "EC50", "setting": "AR / CBP ternary complex", "result": "< 1", "unit": "nM"}, {"measurement": "IC50", "setting": "VCaP cells", "result": "≤ 0.1", "unit": "nM"}]}
{"molecule": "Cn1cc(-c2cc3cccc(-c4cc(C5CCN(CC6CCN(c7ccc(C(=O)N[C@H]8CC[C@H](Oc9ccc(C#N)c(Cl)c9)CC8)nn7)CC6)CC5)c5c(c4)n(C)c(=O)n5C)c3cn2)cn1", "note": "[Compound 31, N-[4-(3-chloro-4-cyano-phenoxy)cyclohexyl]-6-[4-[[4-[1,3-dimethyl-6-[3-(1-methylpyrazol-4-yl)-8-isoquinolyl]-2-oxo-benzimidazol-4-yl]-1-piperidyl]methyl]-1-piperidyl]pyridazine-3-carboxamide]", "values": [{"measurement": "EC50", "setting": "AR / CBP ternary complex", "result": "< 1", "unit": "nM"}, {"measurement": "IC50", "setting": "VCaP cells", "result": "≤ 0.1", "unit": "nM"}]}
{"molecule": "CC(=O)N1CCc2c(c(N3CCCc4nc(-c5ccc(CCC6CCN(c7ccc(C(=O)N[C@H]8CC[C@H](Oc9ccc(C#N)c(Cl)c9)CC8)nn7)CC6)nc5)ncc43)nn2C2CCOCC2)C1", "note": "[Compound 72, 6-[4-[2-[5-[5-(5-acetyl-1-tetrahydropyran-4-yl-6,7-dihydro-4H-pyrazolo[4,3-c]pyridin-3-yl)-7,8-dihydro-6H-pyrido[3,2-d]pyrimidin-2-yl]-2-pyridyl]ethyl]-1-piperidyl]-N-[4-(3-chloro-4-cyano-phenoxy)cyclohexyl]pyridazine-3-carboxamide]", "values": [{"measurement": "EC50", "setting": "AR / CBP ternary complex", "result": "< 1", "unit": "nM"}, {"measurement": "IC50", "setting": "VCaP cells", "result": "0.1 to 1", "unit": "nM"}]}
{"molecule": "CC(=O)N1CCc2c(c(N3CCCc4cc(-c5cnn(C)c5)c(C)cc43)nn2C2CCN(CC3CCN(c4ccc(C(=O)N[C@H]5CC[C@H](Oc6ccc(C#N)c(C)c6C)CC5)nn4)CC3(C)C)CC2)C1", "note": "(some centres unmarked) [Compound 292, 6-[4-[[4-[5-acetyl-3-[7-methyl-6-(1-methylpyrazol-4-yl)-3,4-dihydro-2H-quinolin-1-yl]-6,7-dihydro-4H-pyrazolo[4,3-c]pyridin-1-yl]-1-piperidyl]methyl]-3,3-dimethyl-1-piperidyl]-N-[4-(4-cyano-2,3-dimethyl-phenoxy)cyclohexyl]pyridazine-3-carboxamide]", "values": [{"measurement": "EC50", "setting": "AR / CBP ternary complex", "result": "< 1", "unit": "nM"}, {"measurement": "IC50", "setting": "VCaP cells", "result": "≤ 0.1", "unit": "nM"}]}
{"molecule": "CC(=O)N1CCc2c(c(N3CCCc4cc(-c5cnn(C)c5)c(C(F)F)cc43)nn2C2CCN(C3CCC(C#Cc4ccc(C(=O)N[C@H]5CC[C@H](Oc6ccc(C#N)c(Cl)c6)CC5)nn4)CC3)CC2)C1", "note": "(some centres unmarked) [Compound 194, 6-[2-[4-[4-[5-acetyl-3-[7-(difluoromethyl)-6-(1-methylpyrazol-4-yl)-3,4-dihydro-2H-quinolin-1-yl]-6,7-dihydro-4H-pyrazolo[4,3-c]pyridin-1-yl]-1-piperidyl]cyclohexyl]ethynyl]-N-[4-(3-chloro-4-cyano-phenoxy)cyclohexyl]pyridazine-3-carboxamide]", "values": [{"measurement": "EC50", "setting": "AR / CBP ternary complex", "result": "< 1", "unit": "nM"}, {"measurement": "IC50", "setting": "VCaP cells", "result": "≤ 0.1", "unit": "nM"}]}
{"molecule": "Cn1c(=O)sc2ccc(N3CCCc4cc(-c5ccc(CCC6CCN(c7ccc(C(=O)N[C@H]8CC[C@H](Oc9ccc(C#N)c(Cl)c9)CC8)nn7)CC6)nc5)c(C(F)F)cc43)cc21", "note": "[Compound 56, N-[4-(3-chloro-4-cyano-phenoxy)cyclohexyl]-6-[4-[2-[5-[7-(difluoromethyl)-1-(3-methyl-2-oxo-1,3-benzothiazol-5-yl)-3,4-dihydro-2H-quinolin-6-yl]-2-pyridyl]ethyl]-1-piperidyl]pyridazine-3-carboxamide]", "values": [{"measurement": "EC50", "setting": "AR / CBP ternary complex", "result": "1 to 10", "unit": "nM"}, {"measurement": "IC50", "setting": "VCaP cells", "result": "> 100", "unit": "nM"}]}
{"molecule": "CC(=O)N1CCc2c(c(N3CCCc4cc(-c5cnn(C)c5)c(C(F)F)cc43)nn2[C@H]2CC[C@]3(CCCN(C4CN(c5ccc(C(=O)N[C@H]6CC[C@H](Oc7ccc(C#N)c(Cl)c7)CC6)nn5)C4)C3)CC2)C1", "note": "[Compound 268, 6-[3-[9-[5-acetyl-3-[7-(difluoromethyl)-6-(1-methylpyrazol-4-yl)-3,4-dihydro-2H-quinolin-1-yl]-6,7-dihydro-4Hpyrazolo[4,3-c]pyridin-1-yl]-2-azaspiro[5.5]undecan-2-yl]azetidin-1-yl]-N-[4-(3-chloro-4-cyanophenoxy)cyclohexyl]pyridazine-3-carboxamide]", "values": [{"measurement": "EC50", "setting": "AR / CBP ternary complex", "result": "< 1", "unit": "nM"}, {"measurement": "IC50", "setting": "VCaP cells", "result": "0.1 to 1", "unit": "nM"}]}
{"molecule": "CC(=O)N1CCc2c(c(N3CCCc4cc(-c5cnn(C)c5)c(C)cc43)nn2C2CCN(C(=O)C3CCN(c4ccc(C(=O)N[C@H]5CC[C@H](Oc6ccc(C#N)c(Cl)c6)CC5)nn4)CC3)CC2)C1", "note": "[Compound 3, 6-[4-[4-[5-acetyl-3-[7-methyl-6-(1-methylpyrazol-4-yl)-3,4-dihydro-2H-quinolin-1-yl]-6,7-dihydro-4H-pyrazolo[4,3-c]pyridin-1-yl]piperidine-1-carbonyl]-1-piperidyl]-N-[4-(3-chloro-4-cyano-phenoxy)cyclohexyl]pyridazine-3-carboxamide]", "values": [{"measurement": "EC50", "setting": "AR / CBP ternary complex", "result": "< 1", "unit": "nM"}, {"measurement": "IC50", "setting": "VCaP cells", "result": "≤ 0.1", "unit": "nM"}]}
